Experimental data from patent US12616697B2, “Methods of treatment with myosin modulator” (MyoKardia, Inc., priority 2020, dated 2026).

How the values were obtained:
[1] = tested on: conscious fully-instrumented dogs with normal cardiac function; assay: Cardiac reserve under acute β-AR (dobutamine) challenges in conscious instrumented dogs; assay type: in vivo, dog
Procedure: In addition, the effects of MAVA (at 1.5 mg/kg PO, via gavage) on cardiac reserve were evaluated via acute β-AR challenges (dobutamime: 2, 5, and 10 ug/kg/min IV) in conscious fully-instrumented (LVPV group) dogs with normal cardiac function (n=8). These challenges were performed before/after dosing (+3-hour) in control- and MAVA-treated animals both under normal cardiac physiological conditions (n=4) and under (mild) concomitant cardio-depression induced via either selective β-AR blockade (+BB, metoprolol 0.5±0.1 mg/kg PO tid; n=4) or L-type Ca2+-channel blockade (+CCB, verapamil at 5±1 mg/kg PO tid; n=4); pharmacological blockades were established for 7 days prior to the MAVA treatment. Both peak and dose-responses were evaluated at steady state.
Throughout these experiments, analog signals were digitally acquired (1000 Hz) and recorded continuously with a data acquisition/analysis system (IOX; EMKA Technologies). Heart rate (HR), end-systolic (ESP) and end-diastolic pressures (EDP), as well as the peak rates of pressure rise/decline (dP/dtmax and dP/dtmin), the contractility index (CI: dP/dt/P at dP/dtmax), and the time-constant of myocardial relaxation (tau1/2, time for 50% decay from dP/dtmin) were derived from the LV pressure signal. Meanwhile, the end-systolic (ESV) and end-diastolic volumes (EDV) were measured from the LV volume signal derived from the implanted myocardial crystals. LV volumes were derived assuming a Teichholz model, and stroke volume (SV=EDV−ESV), ejection fraction (EF=SV/EDV), as well as cardiac output (CO=SV·HR) were calculated; in a subset of animals, SV and CO values were verified from data derived from the implanted aortic flow […]. […] The slopes of the preload-recruitable stroke work (PRSW; stroke work vs. EDV) and the end-systolic pressure-volume relationships (ESPVR; end-systolic elastance, Ees) were derived by software using linear models (IOX; EMKA Technologies), and were used as load-independent inotropic indices. Ventricular load was estimated by the effective arterial elastance (Ea=ESP/SV). […]

[2] = tested on: participants with symptomatic oHCM; assay: EXPLORER-HCM Phase 3 double blind, randomized, placebo controlled study; assay type: in vivo, human
Text: A subset of participants consented to participate in a CMR substudy at selected sites. Randomization was stratified according to NYHA functional classification (II or III), current treatment with β-blocker (yes or no), planned type of ergometer used during the study (treadmill or exercise bicycle), and consent for the CMR substudy (yes or no).
1) Screening period (Day −35 to Day −1): Participants will undergo a variety of general, cardiopulmonary, laboratory, symptom, and PRO assessments over 1 to 2 days in order to assess eligibility. Key Screening tests include electrocardiogram (ECG); transthoracic echocardiography (TTE) conducted at rest, with Valsalva maneuver, and post-exercise; as well as cardiopulmonary exercise testing (CPET). The following screening assessments may be repeated, as long as within the 35-days screening window: blood tests, ECG, and/or TTE. Repeat assessments are allowed if central core labs require a repeat submission due to quality and in order to better assess inclusion/exclusion values. Participants who screen fail may be considered for rescreening based on the investigator's discretion, taking into consideration the reason(s) for screen fail. One attempt at rescreening will be allowed, and all procedures must be repeated.
2) Double-blind treatment period (Day 1 [randomization] to Week 30/end of treatment [EOT]): The double-blind treatment period will include a two-step dose titration scheme designed to achieve safe and effective dosing for each participant based on their own response parameters. […] Subsequently, assessments including ECG, PK (trough plasma concentrations), and TTE will be performed at each of 7 study visits, beginning at Week 4, and read by core laboratories. At Week 8 and Week 14, the dose may be increased, decreased, or remain unchanged based upon results of Week 6 and Week 12 assessments, respectively, and based primarily on measurements of provoked left ventricular outflow tract (LVOT) gradient and bounded by a target plasma concentration (PK) range and clinical tolerability (LVEF). At Week 8, the dose may be increased to a maximum daily dose of 10 mg (ie, increase from 5 mg QD to 10 mg QD), and at Week 14 to a maximum daily dose of 15 mg (ie, increase from 10 mg QD to 15 mg QD). Dose increases are designed to be step wise and are not allowed to skip doses (eg, from 5 mg to 15 mg).
At Week 30/EOT, participants will complete CPET and post-exercise TTE. For any participants permanently discontinuing treatment prior to Week 30, an early termination (ET) visit should be conducted as soon as possible, including CPET and post-exercise TTE. Participants with ET will also be encouraged to complete all remaining study visits and assessments, including the Week 30 visit.
3) Posttreatment follow-up period (Week 30/EOT to Week 38/end of study [EOS]): When double-blind treatment ends at Week 30, participants will be contacted by phone at Week 34 and return to the site at Week 38 for an EOS visit. At the EOS visit, specified assessments will be repeated. This posttreatment follow-up period applies only to participants who are receiving study drug after Week 22.
To maintain safety throughout the double-blind treatment period, a clinic visit will occur every 2 to 4 weeks, beginning at Week 4 for an initial evaluation of clinical tolerability and safety. Clinic visits will include but are not limited to clinical evaluation (symptoms, PRO evaluations, adverse event [AE]/serious adverse event [SAE] assessment), ECGs, PK sample, TTEs, and laboratory assessments. Results of TTE performed by study site sonographers at each scheduled visit following randomization should be kept blinded to the investigator and other study site personnel. An exception may occur if left ventricular ejection fraction (LVEF)≤30% is measured at the site, then the investigator will be immediately notified and study drug will be permanently discontinued as described within the protocol. […]

## CC(C)n1c(=O)cc(N[C@@H](C)c2ccccc2)[nH]c1=O [mavacamten, (S)-3-Isopropyl-6-((1-phenylethyl)amino)pyrimidine-2, 4(1H,3H)-dione]
[1]; at any given dP/dtmax gain
  β-AR induced acceleration of tau: enhanced
[1]; dobutamine challenge, MAVA 1.5 mg/kg PO
  β-AR elevations in dP/dtmax and CI: blunted
[2]; Type 1 - pVO2 ≥1.5 ml/kg/min and NYHA improved ≥1, mavacamten group (n = 123)
  Response Type 1, n (%): 41 (33.3) n (%)
[2]; Type 2 - pVO2 ≥3.0 ml/kg/min and no worsening NYHA, mavacamten group (n = 123)
  Response Type 2, n (%): 29 (23.6) n (%)
[2]; difference, mavacamten (n = 123) vs placebo (n = 128)
  Met Composite Functional Response, either type: Mavacamten vs Placebo: 19.4%
[2]; in vivo
  participants with temporary discontinuation associated with reduced ejection fraction: 3
  patients who achieved a complete response (NYHA 1 and all LVOT gradients below 30 mmHg): 27%
  patients who achieved a post-exercise LVOT peak gradient below 30 mmHg: 57%
  subjects with severe TEAEs, %: 5.7%
[2]; patients not receiving β blocker(s)
  Rates of improvement by at least one NYHA class: 65%
[2]; patients not receiving β blocker(s) (n=29)
  difference vs placebo in percent of patients that met the primary endpoint: 52.6%
[2]; patients receiving β blocker(s)
  Rates of improvement by at least one NYHA class: 65%
[2]; patients receiving β blocker(s) (n=94)
  difference vs placebo in percent of patients that met the primary endpoint: 8.7%
[2]; placebo 21%
  patients who achieved NYHA class I status: 65%
[2]; through week 30
  subjects who experienced SAEs, %: 8.1%
[2]; vs placebo
  Absence of MR (mitral regurgitation), Mava vs Placebo Difference (95% CI): 9.0 (3.7, 14.3) %
[2]; week 30, non-β blocker subgroup
  VE/CO2 slope change from baseline: −2.5
[2]; week 30, those not using β blocker(s)
  mean change in pVO2: 2.2 mL/kg/min
[2]; week 30, β blocker subgroup
  VE/CO2 slope change from baseline: −2.5
  mean change in pVO2: 1.1 mL/kg/min
